Data on ten compounds can be found in ChEMBL document CHEMBL1201862, “PubChem BioAssay data set” (2004).

Among the test systems are SK-MEL-28; HOP-92; UACC-257; OVCAR-4; MCF7; RPMI-8226; NCI/ADR-RES; SR; HCT-15; HOP-62; HCT-116; SN12C; UO-31; T47D; BT-549; M14; IGROV-1; SF-268; MDA-MB-231; OVCAR-8.
Assay in all cases: growth of human tumour cells (NCI), 48 h

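Step 1: Grow cells in 96-well plates. Step 2: Expose to compound for 48 hours at 5 concentrations. Step 3: Interpolate endpoints linearly; if unreached, use highest concentration. GI50 = concentration required for 50% inhibition of growth.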 Activity calls are given as the source filed them. Cut-off read from the data, not from the text of the source: active = GI50 up to about 1.1 µM and inactive = higher.

On to `COc1ccc(NCc2cnc3nc(N)nc(N)c3c2C)cc1`, for which the GI50 was 8.51 µM (inactive) in the test with SK-MEL-28; 5.93 µM (inactive) in the test with HOP-92; 2.58 µM (inactive) in the test with UACC-257; > 53.5 µM (inactive) in the test with OVCAR-4; 2.13 µM (inactive) with MCF7; 5.96 µM (inactive) with RPMI-8226. Besides, the GI50 was > 100 µM (inactive) in the test on NCI/ADR-RES; 0.449 µM (active) in the test with SR; 0.443 µM in the test with HCT-15; 1.16 µM (inactive) with HOP-62; 0.0785 µM (active) with HCT-116; 3.85 µM (inactive) in the test on SN12C. For the same compound, the GI50 in the test with UO-31 was > 49.8 µM (inactive); in the test on T47D, 15 µM (inactive); in the test with BT-549, > 100 µM (inactive); in the test with M14, 1.69 µM (inactive); in the test with IGROV-1 it was 0.771 µM (active); in the test on SF-268, 0.618 µM (active). Besides, the GI50 in the test with MDA-MB-231 was 0.121 µM (active); with OVCAR-8, 0.167 µM (active).
Regarding `Cc1ccccc1/N=N/c1ccc(N/N=C2/CCCNC2=O)c(C)c1`, the GI50 in the test with SK-MEL-28 is > 100 µM (inactive); in the test on HOP-92 it was > 100 µM (inactive); in the test on UACC-257 it was > 100 µM (inactive); in the test on OVCAR-4, 66.8 µM (inactive); in the test with MCF7 it was 64.1 µM (inactive); in the test with RPMI-8226 it was > 100 µM (inactive). In addition, the GI50 with NCI/ADR-RES was > 100 µM (inactive); in the test on SR, 36.1 µM (inactive); in the test on HCT-15, above 100 µM; in the test on HOP-62 it was > 100 µM (inactive); with HCT-116, > 100 µM (inactive); in the test with SN12C, > 100 µM (inactive). Besides, the GI50 with UO-31 is 39.5 µM (inactive); in the test with T47D, 33 µM (inactive); in the test on BT-549, > 100 µM (inactive); in the test with M14, > 100 µM (inactive); with IGROV-1 it was > 100 µM (inactive); in the test on SF-268 it was > 100 µM (inactive). Further, the GI50 in the test on MDA-MB-231 is > 100 µM (inactive).
With `O=C(CC(=O)N1N=C(N(c2ccccc2)c2ccccc2)CC1c1ccccc1)Nc1ccccc1` (configuration not stated), the GI50 with SK-MEL-28, in the test with HOP-92, in the test on UACC-257, with OVCAR-4, in the test with MCF7 and in the test with RPMI-8226 was > 100 µM (inactive) throughout. The GI50 is > 100 µM (inactive) in the test with NCI/ADR-RES; 37.7 µM (inactive) with SR; above 100 µM with HCT-15; 48.5 µM (inactive) with HOP-62; > 100 µM (inactive) in the test on HCT-116; > 100 µM (inactive) with UO-31. Moreover, the GI50 in the test on T47D is > 100 µM (inactive); in the test on BT-549, > 100 µM (inactive); with M14 it was > 100 µM (inactive); in the test with IGROV-1, > 100 µM (inactive); in the test with SF-268, 40.8 µM (inactive); in the test with MDA-MB-231, 7.82 µM (inactive). Besides, in the test with OVCAR-8, the GI50 was > 100 µM (inactive).
As for `C=C(C)C(CC=C(C)C)CC12CC(CC=C(C)C)C(C)(C)C(CC=C(C)C)(C(=O)C(Cc3ccc(O)c(O)c3)=C1O)C2=O` (configuration not stated), the GI50 in the test with SK-MEL-28, with HOP-92, in the test on UACC-257, in the test on OVCAR-4, with MCF7 and with RPMI-8226 was > 100 µM (inactive) throughout. In addition, the GI50 with NCI/ADR-RES was > 100 µM (inactive); in the test with SR it was > 100 µM (inactive); in the test with HCT-15, above 100 µM; with HOP-62, > 100 µM (inactive); with HCT-116 it was > 100 µM (inactive); in the test on UO-31, > 100 µM (inactive). In addition, the GI50 in the test with T47D, in the test with BT-549, with M14, in the test with IGROV-1, in the test on SF-268 and in the test with MDA-MB-231 was > 100 µM (inactive) throughout. Further, in the test with OVCAR-8, the GI50 is > 100 µM (inactive).
With `CC(C)OC(=O)[C@H]1ON2O[C@H](O[C@@H]3CCCC[C@H]3c3ccccc3)C([Si](C)(C)c3ccccc3)[C@H]3OC(=O)[C@@H]1C32` (some centres not stated), the GI50 in the test on SK-MEL-28 is > 100 µM (inactive); with HOP-92, > 100 µM (inactive); in the test with UACC-257, > 100 µM (inactive); with MCF7 it was 30.1 µM (inactive); with RPMI-8226 it was > 100 µM (inactive); in the test on NCI/ADR-RES, > 100 µM (inactive). Besides, the GI50 was 21.2 µM (inactive) in the test with SR; above 100 µM with HCT-15; > 100 µM (inactive) with HOP-62; > 100 µM (inactive) in the test with HCT-116; > 100 µM (inactive) with SN12C; > 100 µM (inactive) in the test with UO-31. Further, the GI50 in the test with T47D was 87.5 µM (inactive); in the test on BT-549, > 100 µM (inactive); with M14, > 100 µM (inactive); with IGROV-1 it was > 100 µM (inactive); in the test with SF-268, > 100 µM (inactive); with MDA-MB-231 it was > 100 µM (inactive). Further, the GI50 in the test on OVCAR-8 is > 100 µM (inactive).
For the compound `Cc1cc2c(cc1C)[n+]([O-])c(C(=O)/C=C/c1ccc3c(c1)OCO3)c(C)[n+]2[O-]`, the GI50 in the test with SK-MEL-28 was > 100 µM (inactive); in the test with HOP-92, 25.6 µM (inactive); in the test on UACC-257 it was > 88.7 µM (inactive); in the test on OVCAR-4 it was > 100 µM (inactive); with MCF7, > 100 µM (inactive); with RPMI-8226 it was > 100 µM (inactive). The GI50 with NCI/ADR-RES is 74.6 µM (inactive); in the test on SR it was > 100 µM (inactive); in the test on HCT-15, above 100 µM; with HOP-62, 21 µM (inactive); with HCT-116, 53.8 µM (inactive); in the test on SN12C, > 78.7 µM (inactive). Moreover, the GI50 in the test with UO-31 is > 100 µM (inactive); in the test on T47D, > 86.1 µM (inactive); in the test with BT-549 it was 69.3 µM (inactive); in the test with M14, 98.9 µM (inactive); with IGROV-1 it was 48.4 µM (inactive); in the test with SF-268, 29.4 µM (inactive). For the same compound, the GI50 in the test with MDA-MB-231 was > 48.9 µM (inactive); in the test with OVCAR-8, > 100 µM (inactive).
For the compound `O=C1OCC2=Nc3cccc4cccc(c34)N12`, the GI50 is > 100 µM (inactive) in the test with SK-MEL-28; < 0.01 µM (active) with HOP-92; > 100 µM (inactive) with UACC-257; > 100 µM (inactive) with OVCAR-4; > 100 µM (inactive) in the test with MCF7; > 100 µM (inactive) in the test on NCI/ADR-RES. The GI50 was > 100 µM (inactive) in the test on SR; above 100 µM in the test with HCT-15; > 100 µM (inactive) with HOP-62; > 100 µM (inactive) with HCT-116; > 100 µM (inactive) with SN12C; > 100 µM (inactive) in the test with UO-31. Also, the GI50 in the test with T47D, with BT-549, in the test with M14, with IGROV-1, with SF-268 and in the test with MDA-MB-231 was > 100 µM (inactive) throughout. The GI50 in the test on OVCAR-8 was > 100 µM (inactive).
As to `Cc1nn(C(=O)c2ccc(Cl)cc2)c2c1C(c1ccc([N+](=O)[O-])cc1)SC(=N)N2` (configuration not stated), the GI50 in the test with SK-MEL-28, in the test on HOP-92, in the test on UACC-257, in the test on OVCAR-4, with MCF7 and with RPMI-8226 was > 10 µM (inactive) in each case. In addition, the GI50 was > 10 µM (inactive) with NCI/ADR-RES; > 10 µM (inactive) with SR; above 10 µM with HCT-15; > 10 µM (inactive) in the test on HOP-62; > 10 µM (inactive) in the test with HCT-116; > 10 µM (inactive) in the test on SN12C. The GI50 in the test on T47D, with BT-549, in the test on M14, in the test with IGROV-1, in the test on SF-268 and in the test on MDA-MB-231 was > 10 µM (inactive) each time. For the same compound, the GI50 in the test on OVCAR-8 is > 10 µM (inactive).
On to `CC(C)[Si](OC1=CCC[C@H]2NC(=O)[C@@H](Cc3ccccc3)[C@@]12C)(C(C)C)C(C)C`, for which the GI50 was 4.11 µM (inactive) in the test on SK-MEL-28; 2.32 µM (inactive) with HOP-92; 4.54 µM (inactive) in the test on UACC-257; 5.25 µM (inactive) in the test on OVCAR-4; 3.55 µM (inactive) with MCF7; 6.49 µM (inactive) in the test on NCI/ADR-RES. Moreover, the GI50 is 2.62 µM (inactive) with SR; 4.09 µM in the test with HCT-15; 11.9 µM (inactive) in the test with HOP-62; 3.6 µM (inactive) in the test on HCT-116; 3.23 µM (inactive) with SN12C; 10.1 µM (inactive) in the test on UO-31. Besides, the GI50 with T47D was 2.79 µM (inactive); in the test with BT-549 it was 10.8 µM (inactive); in the test on M14 it was 11.2 µM (inactive); in the test with IGROV-1 it was 10.9 µM (inactive); in the test with SF-268, 12.1 µM (inactive); in the test with MDA-MB-231 it was 12.6 µM (inactive). Further, the GI50 with OVCAR-8 was 11.4 µM (inactive).
Turning to `CCOC(=O)c1nc2c3c(ncn2n1)Oc1c(c(-c2ccccc2)nn1-c1ccccc1)C3c1ccc(Cl)cc1` (configuration not stated), the GI50 in the test with SK-MEL-28, with HOP-92, with UACC-257, in the test on OVCAR-4, with MCF7 and with RPMI-8226 was > 100 µM (inactive) each time. The GI50 with NCI/ADR-RES was > 100 µM (inactive); in the test with SR it was > 100 µM (inactive); with HCT-15, above 100 µM; in the test on HOP-62, > 100 µM (inactive); with HCT-116, > 100 µM (inactive); in the test with SN12C, > 100 µM (inactive). In addition, the GI50 in the test with UO-31, in the test on T47D, in the test with BT-549, with M14, in the test on SF-268 and with MDA-MB-231 was > 100 µM (inactive) throughout. The GI50 with OVCAR-8 is > 100 µM (inactive).
